# Assay results published in patent US6899723B2, “Transcutaneous photodynamic treatment of targeted cells” (Light Sciences Corporation, priority 2001, dated 2005).
# Several values for one entry are separate records, joined by “and”; a condition that tells them apart may be missing. Equal values may be shown once.
# Columns and labels:
# [1] = cited from earlier work
# [2] = test system: colon carcinoma tumor mass; assay: Photodynamic therapy of a solid tumor in a patient with implanted LED light source probes; type: in vivo, human
# Description: A patient in the terminal phase of recurrent malignant colon cancer having undergone chemotherapy and irradiation therapy, presented with a protruding colon carcinoma tumor mass of approximately 500 grams and approximately 13 cm in diameter, which extended through the patient's dermis. Due to the advanced state of the patient's disease and due to the highly vascularized nature of this tumor mass, resection was not feasible. Further, this large tumor mass presented a significant amount of pain and discomfort to the patient, as well as greatly impairing the patient's ability to lie flat.
# Six separate light source probes, each including a linear array of LEDs, were surgically implanted in this large human tumor using standard surgical procedures. A single dose of a photosensitizer agent (aminolevulinic acid (ALA) at 60 mg/kg) was provided by oral administration to the patient. Following a period of five hours to permit sufficient clearance of the photosensitizing agent from healthy tissues, light irradiation was administered. An intensity of about 25-30 mW of light from each light source probe (650 nm peak wavelength) was delivered to the tumor for 40 hours. […] The total fluence delivered to the tumor bed during this single extended duration treatment was in excess of 20,000 Joules.
# The fluence rate employed in this Example represented about 150-180 mW/cm^2, with a total fluence more than 20,000 Joules.
# normal skin tissue = conditions: systemically administered, clinical use; cited from earlier work
# [3] = test system: transplanted human tumors; assay: Low fluence PDT of established transplanted human tumors in nude mice; type: in vivo; conditions: for tumor necrosis: 660 nm light 30 microwatts per cm^2 for 72 hours, after 7 days
# Method: (§1) A series of experiments were performed using nude mice growing transplanted human tumors. The mice are injected with various photosensitizers and the tumors illuminated with low fluence of only […] of light over a 72 hour time period. Extended tumor necrosis was observed.
# (§2) Another two mice with established tumors were injected with 50-100 micrograms of Pheophorbide A into the lesion and exposed to 660 nm light (30 microwatts per cm^2) for 72 hours.
# (§3) Two experimental mice were injected with epithelial cancer cells preincubated with 20 micrograms of Chlorin e6. […] Another two mice were injected with 100-150 micrograms of Chlorin e6 intratumorally and then exposed to 660 nm light (30 microwatts per cm^2) for 72 hours.
# Five experimental mice bearing established tumors were injected with 1 mg Hpd intraperitoneally followed by exposure to 630 nm (peak) light ([…]) for 72 hours. […] There was no effect observed on control animals maintained in the absence of light (dark control mice).
# epithelial cancer cells = assay: Low fluence PDT of nude mice injected with epithelial cancer cells preincubated with photosensitizer; type: in vivo; conditions: for tumor growth: 660 nm light about 48 hours, 30 microwatts per cm^2, after 1.5 months
# Method: as §1, §2, §3
# virus-infected T cells = conditions: Blood Cells 18:129-40 (1992); cited from earlier work
compound,measurement,setting,value
"CC(=O)[O-].CC(=O)[O-].CCc1c(CC)c2cc3nc(cnc4cc(OCCOCCOCCOC)c(OCCOCCOCCOC)cc4ncc4nc(cc1[n-]2)C(CCCO)=C4C)C(C)=C3CCCO.O.[Lu+3] [Lutrin, lutetium texaphyrin]",time tumor tissues retain the agent,[1]; from time of administration,48 to 96 h and 24 to 96 h
same,time at which a larger proportion clears from normal tissue,[1]; in vivo,about 8 hours
same,time at which a proportion begins to clear from normal tissue,[1]; in vivo,about 3 hours
same,time at which an even greater proportion clears from normal tissue,[1]; in vivo,about 16 hours
"NCC(=O)CCC(=O)O [ALA, aminolevulinic acid]",reduction of tumor tissue (necrotic tissue debrided),[2]; over four weeks following PDT,approximately 500 grams
same,radius of extensive tumor necrosis from each of the light source probes,"[2]; patient, ALA 60 mg/kg oral, 650 nm light, after 40 hours of PDT, total fluence > 20,000 Joules",greater than 5 cm
same,collateral damage to surrounding normal tissue,"[2]; patient, ALA 60 mg/kg oral, after 40 hours of PDT",no collateral damage
sodium porfimer [PHOTOPHRIN],duration of dermal photosensitivity,normal skin tissue,up to six weeks
CCOC(=O)C1=Cc2c3nc(cc4nc(cc5[n-]c(cc6[n-]c2c(C)c6CC)c(C)c5CC)C(C)=C4CC)[C@@H](C)[C@]13CC.[Cl-].[Cl-].[Sn] (racemic) [PURLYTIN],duration of dermal photosensitivity,normal skin tissue,at least several weeks
C=Cc1c(C)c2cc3nc(c(CC(=O)O)c4[nH]c(cc5nc(cc1[nH]2)C(C)=C5CC)c(C)c4C(=O)O)[C@@H](CCC(=O)O)[C@@H]3C [Chlorin e6],tumor necrosis,[3]; 100-150 micrograms intratumorally,Extensive tumor necrosis
same,tumor growth,epithelial cancer cells; cells preincubated with 20 micrograms,no tumor growth
same,"tumor growth, dark control","epithelial cancer cells; cells preincubated with 20 micrograms, no light",developed a large tumor
Oc1cccc(-c2c3nc(c(-c4cccc(O)c4)c4ccc([nH]4)c(-c4cccc(O)c4)c4nc(c(-c5cccc(O)c5)c5ccc2[nH]5)CC4)C=C3)c1 [FOSCAN],duration of dermal photosensitivity,normal skin tissue,at least several weeks
Pheophorbide A,tumor necrosis,[3]; 50-100 micrograms into the lesion,Extensive tumor necrosis
same,"effect on tumor, dark control animals","[3]; 50-100 micrograms into the lesion, no light",no effect
same,tumor growth,epithelial cancer cells; cells preincubated with 10 micrograms,no tumor growth
same,"tumor growth, dark controls","epithelial cancer cells; cells preincubated with 10 micrograms, maintained in the absence of light",developed a large tumor
benzoporphyrin derivatives [BPD],effect on T cell membrane after exposure to light,virus-infected T cells,holes developed in the T cell membrane and increased in size until the membrane completely decomposed
